Literature values as cited in patent US20130338095A1, “Chemosensory Receptor Ligand-Based Therapies” (ELCELYX THERAPEUTICS, INC., priority 2010, published 2013).

Molecular target: T1, sweet receptor (Homo sapiens, UniProt Q7RTX0+Q8TE23)
T1 sequence (Q8TE23 20-839): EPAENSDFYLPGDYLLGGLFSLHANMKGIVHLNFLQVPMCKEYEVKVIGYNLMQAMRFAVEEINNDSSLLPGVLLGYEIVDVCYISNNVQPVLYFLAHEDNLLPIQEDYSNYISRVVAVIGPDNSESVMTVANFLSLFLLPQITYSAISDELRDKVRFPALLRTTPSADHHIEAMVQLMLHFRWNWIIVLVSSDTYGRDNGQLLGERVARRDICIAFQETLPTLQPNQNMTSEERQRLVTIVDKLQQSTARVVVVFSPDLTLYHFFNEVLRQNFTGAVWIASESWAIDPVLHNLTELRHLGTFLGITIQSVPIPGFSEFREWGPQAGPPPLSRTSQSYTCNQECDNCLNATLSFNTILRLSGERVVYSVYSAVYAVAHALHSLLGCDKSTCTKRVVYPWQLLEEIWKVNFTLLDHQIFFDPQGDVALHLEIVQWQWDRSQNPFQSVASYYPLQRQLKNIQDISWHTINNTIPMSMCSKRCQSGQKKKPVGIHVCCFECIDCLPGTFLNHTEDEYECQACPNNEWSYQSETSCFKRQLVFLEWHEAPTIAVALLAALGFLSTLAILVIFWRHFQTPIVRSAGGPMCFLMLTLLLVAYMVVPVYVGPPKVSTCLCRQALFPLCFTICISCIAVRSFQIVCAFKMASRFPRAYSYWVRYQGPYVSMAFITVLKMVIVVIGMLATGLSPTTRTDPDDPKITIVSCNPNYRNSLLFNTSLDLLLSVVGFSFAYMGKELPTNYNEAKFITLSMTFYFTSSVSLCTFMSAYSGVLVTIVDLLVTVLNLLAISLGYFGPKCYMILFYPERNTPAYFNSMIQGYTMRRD
T1 sequence (Q7RTX0 21-852): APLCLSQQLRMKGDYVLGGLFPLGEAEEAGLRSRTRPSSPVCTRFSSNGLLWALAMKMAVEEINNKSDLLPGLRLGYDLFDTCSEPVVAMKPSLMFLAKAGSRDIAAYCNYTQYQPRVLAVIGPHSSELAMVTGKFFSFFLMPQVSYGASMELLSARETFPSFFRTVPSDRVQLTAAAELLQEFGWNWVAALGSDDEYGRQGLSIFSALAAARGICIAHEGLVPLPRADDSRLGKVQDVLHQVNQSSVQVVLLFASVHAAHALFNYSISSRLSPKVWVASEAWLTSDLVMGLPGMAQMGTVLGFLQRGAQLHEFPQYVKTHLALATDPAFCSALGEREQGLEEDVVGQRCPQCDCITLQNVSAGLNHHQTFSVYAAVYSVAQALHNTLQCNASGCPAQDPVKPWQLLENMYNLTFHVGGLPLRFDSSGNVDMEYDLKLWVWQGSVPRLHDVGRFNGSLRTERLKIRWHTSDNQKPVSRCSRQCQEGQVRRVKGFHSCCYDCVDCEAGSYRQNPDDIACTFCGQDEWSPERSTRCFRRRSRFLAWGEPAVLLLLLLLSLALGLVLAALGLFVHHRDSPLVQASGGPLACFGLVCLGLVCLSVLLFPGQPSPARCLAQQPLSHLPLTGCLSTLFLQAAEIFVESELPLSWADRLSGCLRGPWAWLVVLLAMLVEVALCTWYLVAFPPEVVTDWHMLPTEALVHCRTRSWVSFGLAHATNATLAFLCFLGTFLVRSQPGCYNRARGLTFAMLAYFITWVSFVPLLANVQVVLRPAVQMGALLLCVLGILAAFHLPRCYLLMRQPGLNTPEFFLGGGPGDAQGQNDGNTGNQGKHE
Details: relative sweetness on a weight comparison basis to sucrose (=1.0)

Row | Sweetness/potency | Structure (SMILES)
1 | 80 | CC(=O)O[C@H]1C(=O)c2c(O)cc(O)cc2O[C@@H]1c1ccc(O)c(O)c1 [(2R,3R)-Dihydroquercetin 3-O-acetate]
2 | 1000 | CC[C@@H](C)C(=O)O[C@@H](C)[C@]1(O)CC[C@]2(O)[C@@H]3CC[C@H]4C[C@@H](O[C@@H]5C[C@H](O)[C@H](O[C@H]6C[C@H](OC)[C@H](O[C@H]7C[C@@H](OC)[C@H](O[C@H]8C[C@@H](OC)[C@H](O[C@@H]9O[C@H](C)[C@@H](O[C@@H]%10O[C@H](CO)[C@@H](O)[C@H](O)[C@H]%10O)[C@H](OC)[C@H]9O)[C@@H](C)O8)[C@@H](C)O7)[C@@H](C)O6)[C@@H](C)O5)CC[C@]4(C)[C@H]3C[C@@H](OC(C)=O)[C@]12C [Telosmoside A15]
3 | 55 | C/C(=C\CO)CCC1=C(C=O)CC(OC2OCC(O)C(O)C2O)C2C(C)(CO)CCCC12C (stereo not drawn) [Gaudichaudioside A]
4 | 92 | CC1(C(=O)O)C=C2C3CCC4C5(CO)CCC(OC6OC(C(=O)O)C(O)C(O)C6OC6OC(C(=O)O)C(O)C(O)C6O)C(C)(C)C5CCC4(C)C3(C)CCC2(C)CC1 (stereo not drawn) [Periandrin III]
5 | 13 | C/C=C/c1ccc(OC)cc1 [trans-Anethole]
6 | 35 | Oc1ccc([C@H]2Oc3c(c(O)cc4c3[C@H]3c5c(O)cc(O)cc5O[C@@](c5ccc(O)cc5)(O4)[C@@H]3O)[C@H](c3c(O)cc(O)c4c3O[C@H](c3ccc(O)cc3)[C@@H](O)C4)[C@H]2O)cc1 [Selligueain A]
7 | 500 | C[C@@H]1O[C@@H](O[C@H]2O[C@@H]([C@@H](C)C3CC[C@@H]4[C@H]5CC(=O)[C@@H]6C[C@H](O[C@@H]7O[C@H](CO)[C@@H](O)[C@H](O)[C@H]7O[C@@H]7O[C@@H](C)[C@H](O)[C@@H](O)[C@H]7O)CC[C@]6(C)[C@@H]5CC[C@]34C)CC[C@@H]2C)[C@H](O)[C@H](O)[C@H]1O (stereo partly drawn) [Osladin]

System: not given
Details: bitter phytonutrients in common plant foods

Row | Structure (SMILES) | Taste quality
8 | C=CCC(=NOS(=O)(=O)O)S[C@@H]1O[C@H](CO)[C@@H](O)[C@H](O)[C@H]1O (stereo in doubt) [Sinigrin] | Bitter
9 | COc1ccc(-c2cc(=O)c3c(OC)c(OC)c(OC)cc3o2)cc1OC [Sinensetin] | Bitter
10 | C=C[C@H](O)CC(=NOS(=O)(=O)O)S[C@@H]1O[C@H](CO)[C@@H](O)[C@H](O)[C@H]1O [Progoitrin] | Bitter
11 | O=c1c(-c2ccc(O)cc2)coc2cc(O[C@@H]3O[C@H](CO)[C@@H](O)[C@H](O)[C@H]3O)ccc12 [Daidzin] | Astringent
12 | C=CC1CNC(=S)O1 (stereo not drawn) [Goitrin 5-vinyl-2-oxazolidine thione, 5-vinyl-2-oxazolidine thione] | Bitter
13 | CC(=O)O[C@H]1CC(=O)OC(C)(C)[C@@H]2CC(=O)[C@]3(C)[C@H](CC[C@@]4(C)[C@H](c5ccoc5)OC(=O)[C@H]5O[C@]543)[C@@]12C [Nomilin] | Bitter
14 | O=c1c(-c2ccc(O)cc2)coc2cc(O)ccc12 [daidzein] | Bitter or astringent
15 | O=c1c(-c2ccc(O)cc2)coc2cc(O)cc(O)c12 [Genistein] | Bitter or astringent
16 | O=c1c(O)c(-c2ccc(O)c(O)c2)oc2cc(O)cc(O)c12 [Quercetin] | Bitter
17 | C[S+]([O-])CCCCN=C=S (stereo not drawn) [4-Methylsulfinyl butyl isothiocyanate] | Acrid mustard oils
18 | O=c1c(-c2ccc(O)cc2)coc2cc(O[C@@H]3O[C@H](CO)[C@@H](O)[C@H](O)[C@H]3O)cc(O)c12 [Genistin] | Astringent
19 | O=S(=O)(O)ON=C(Cc1c[nH]c2ccccc12)S[C@@H]1O[C@H](CO)[C@@H](O)[C@H](O)[C@H]1O [Glucobrassicin] | Bitter
20 | COc1ccc(-c2cc(=O)c3c(OC)c(OC)c(OC)c(OC)c3o2)cc1 [Tangeretin] | Bitter
21 | CC1(C)O[C@H]2CC(=O)OC[C@]23[C@H]2CC[C@@](C)([C@@H](O[C@@H]4O[C@H](CO)[C@@H](O)[C@H](O)[C@H]4O)c4ccoc4)[C@@]4(O[C@@H]4C(=O)O)[C@]2(C)C(=O)C[C@@H]13 [Limonin glucoside] | Tasteless
